Experiments:
[1] = biological target: T1, Prostaglandin G/H synthase 1 (Mus musculus, UniProt P22437); assay: Inhibition of COX1 in mouse peritoneal macrophages
T1 sequence (P22437 whole entry): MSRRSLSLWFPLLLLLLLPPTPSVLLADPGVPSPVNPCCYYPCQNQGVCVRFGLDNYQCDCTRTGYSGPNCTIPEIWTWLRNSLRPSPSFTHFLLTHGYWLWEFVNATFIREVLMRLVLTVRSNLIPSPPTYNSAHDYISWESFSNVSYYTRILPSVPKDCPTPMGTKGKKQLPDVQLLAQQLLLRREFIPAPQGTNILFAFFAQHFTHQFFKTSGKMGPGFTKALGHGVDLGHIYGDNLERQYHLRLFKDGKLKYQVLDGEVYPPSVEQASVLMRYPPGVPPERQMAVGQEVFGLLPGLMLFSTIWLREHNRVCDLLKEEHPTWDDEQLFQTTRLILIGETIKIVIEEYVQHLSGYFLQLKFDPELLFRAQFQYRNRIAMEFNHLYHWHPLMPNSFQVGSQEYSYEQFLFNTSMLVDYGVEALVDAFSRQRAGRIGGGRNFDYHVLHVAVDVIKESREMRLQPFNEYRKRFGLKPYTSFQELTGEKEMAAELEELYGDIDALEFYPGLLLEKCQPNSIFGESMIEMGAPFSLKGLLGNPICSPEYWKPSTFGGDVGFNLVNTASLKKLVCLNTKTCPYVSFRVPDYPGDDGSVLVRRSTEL

[2] = biological target: T2, Prostaglandin G/H synthase 2 (Mus musculus, UniProt Q05769); assay: Inhibition of COX2 in mouse peritoneal macrophages
T2 sequence (Q05769 whole entry): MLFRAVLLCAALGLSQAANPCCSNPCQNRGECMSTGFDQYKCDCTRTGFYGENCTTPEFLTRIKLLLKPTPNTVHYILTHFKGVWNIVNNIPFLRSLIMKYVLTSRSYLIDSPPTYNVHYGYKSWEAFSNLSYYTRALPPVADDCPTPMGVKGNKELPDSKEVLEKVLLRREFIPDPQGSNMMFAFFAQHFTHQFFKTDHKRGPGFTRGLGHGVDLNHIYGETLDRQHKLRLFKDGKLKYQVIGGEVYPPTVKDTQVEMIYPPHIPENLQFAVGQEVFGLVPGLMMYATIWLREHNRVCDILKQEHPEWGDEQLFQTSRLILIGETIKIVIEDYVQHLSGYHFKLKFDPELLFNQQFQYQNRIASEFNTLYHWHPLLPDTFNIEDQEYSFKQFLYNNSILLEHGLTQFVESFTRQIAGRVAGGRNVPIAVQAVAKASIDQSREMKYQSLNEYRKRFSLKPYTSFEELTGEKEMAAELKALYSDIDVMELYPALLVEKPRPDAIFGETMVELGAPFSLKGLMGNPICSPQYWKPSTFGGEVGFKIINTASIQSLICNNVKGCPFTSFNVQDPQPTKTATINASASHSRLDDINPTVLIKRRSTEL

Mus musculus = species: Mus musculus; assay: Selectivity index, ratio of IC50 for COX1 to IC50 for COX2 in mouse peritoneal macrophages
Rattus norvegicus [3] = assay: Antiinflammatory activity in rat assessed as inhibition of carrageenan induced paw edema at 10 mg/kg after 1 hr relative to control; format: functional
Rattus norvegicus [4] = assay: Antiinflammatory activity in rat assessed as inhibition of carrageenan induced paw edema at 10 mg/kg after 2 hrs relative to control; format: functional
Rattus norvegicus [5] = assay: Antiinflammatory activity in rat assessed as inhibition of carrageenan induced paw edema at 10 mg/kg after 3 hrs relative to control; format: functional
Rattus norvegicus [6] = assay: Antiinflammatory activity in rat assessed as inhibition of carrageenan induced paw edema at 10 mg/kg after 4 hrs relative to control; format: functional
[7] = biological target: Prostaglandin G/H synthase 1 (Mus musculus, UniProt P22437); assay: Inhibition of calcimycin-induced COX1 activity

Row | Structure (SMILES) | IC50 [1] [nM] | IC50 [2] [nM] | Ratio IC50 (Mus musculus) | inhibition in vivo at 10 mg/kg (Rattus norvegicus [3]) [%] | inhibition in vivo at 10 mg/kg (Rattus norvegicus [4]) [%] | inhibition in vivo at 10 mg/kg (Rattus norvegicus [5]) [%] | inhibition in vivo at 10 mg/kg (Rattus norvegicus [6]) [%] | IC50 [7] [nM]
1 | CCCN1CC(c2ccc(S(C)(=O)=O)cc2)=C(c2ccc(CO)cc2)C1=O | 87 | 14 | 6.2 | 26.5 | 46 | 56.1 | 63.9 | –
2 | CCCN1CC(c2ccc(S(C)(=O)=O)cc2)=C(c2ccc(C)cc2)C1=O [IMRECOXIB] | 115 | 18 | 6.4 | 31.3 | 39.5 | 50.4 | 50.4 | –
3 | Cc1ccc(-c2cc(C(F)(F)F)nn2-c2ccc(S(N)(=O)=O)cc2)cc1 [CELECOXIB] | – | – | – | 23.5 | 36.6 | 44.7 | 49.3 | –
4 | CCCN1CC(c2ccc(S(C)(=O)=O)cc2)=C(c2ccc(C(=O)O)cc2)C1=O | – | 410 | 6.8 | 45.4 | 51.9 | 55.5 | 65.9 | 2780

Reference: ChEMBL document CHEMBL1153980, “Synthesis and anti-inflammatory activity of the major metabolites of imrecoxib” (Bioorg Med Chem Lett, 2009)
